Laboratory results: patent US20210277264A1, “INK COMPOSITIONS” (HEWLETT-PACKARD DEVELOPMENT COMPANY, L.P., priority 2018, published 2021)

Assay: Partition coefficient (log P 1-octanol/water) of organic co-solvents
Conditions: not given
Source text: The hydrophilicity of the organic co-solvent can be quantified as a partition coefficient. As used herein, “partition coefficient” refers to a concentration ratio of a compound in an equilibrium mixture of two immiscible phases, and can be a measure of the difference in solubility of the compound in the two immiscible phases. Formula I provides an equation of quantifying the hydrophilicity of the organic co-solvents of the present disclosure, as follows: […]

Row | SMILES | Partition Coefficient (log P1-octanol/water)
1 | CC1(C)NC(=O)NC1=O [5,5-dimethyl hydantoin] | −0.40
2 | CCCCCCCCO [Ink 1-octanol, 1-octanol] | 2.34
3 | O=C1CCCN1CCO [N-(2-hydroxyethyl)-2-pyrrolidinone] | −0.40
4 | CC1(C)C(=O)N(CCO)C(=O)N1CCO [di-(2-hydroxyethy)-5,5-dimethylhydantoin] | −1.39
5 | OCCOCCOCCO [triethylene glycol] | −1.00
6 | O [water] | −0.825

Same assay, conditions: equilibrium mixture of 1-octanol and water

Row | SMILES | Partition Coefficient (log P1-octanol/water)
7 | O=C1CCCN1 [2-pyrrolidone] | −0.10
8 | CCC(CO)(CO)CO [ethylhydroxy propanediol] | −0.50
